Laboratory results reported in patent US20040052728A1, “Diagnostic imaging” (priority 1998, published 2004).
Read-outs that look alike come from different tables or passages of the source.

Key:
myocardium [1] = assay: Open chest ultrasound imaging with partial coronary occlusion (snare on left anterior descending coronary artery); type: in vivo, dog; conditions: for change in contrast effect in the myocardium, except in areas supplied by the stenotic artery: one minute after start of infusion
Method: The procedure of Example 1 was repeated except that an occluding snare was placed around the major branch of the left anterior descending coronary artery. An ultrasound transit time flow meter was applied to the same artery and the snare was adjusted to give a stable reduction in blood flow to about 75% of the normal value. Contrast agent and adenosine injections were then administered as in Example 1.
(§1) In order to analyse ultrasound images obtained according to the procedure of Example 1, the images were first converted from video images into grey level digital images (640×480 pixels) using a frame grabber. A fixed central region (399×399 pixels) covering the image sector was selected for further processing. The thus-obtained images were decimated by averaging 3×3 pixels into new images (133×133 pixels) and were then median filtered using a sliding region (5×5 pixels).
(§2) A single image obtained just before onset of adenosine-induced vasodilatation was selected as a geometrical template to which all other images were automatically adjusted to maximum pixel correlation by an affine transformation (6 degrees of freedom). Only pixels within a region of interest in the template image encompassing the left ventricle and its myocardium were used for calculating maximum pairwise pixel grey level correlation.
(§3) 6-10 baseline images from before the appearance of adenosine effects were averaged to give a representative baseline image, and a similar number of images at peak adenosine effect were likewise averaged. The two thus-obtained averaged images were then subtracted and the difference was colour coded. […] The colour coding was selected to represent the range −4 dB (blue colour) to +4 dB (red colour).
Images were acquired as described in Example 3 and processed according to the method of Example 4.
The procedure of Example 3 is repeated except that the bolus injection of adenosine is replaced with a pumpcontrolled infusion of dobutamine at a rate of 15 μg/kg/min.
The procedure of Example 3 is repeated except that the bolus injection of adenosine is replaced with a pumpcontrolled infusion of arbutamine at a rate of 0.4 μg/kg/min.

[2] = tested on: left circumflex perfusion beds; conditions: contrast agent perfluoropropane-enhanced sonicated dextrose albumin i.v., cited from earlier work
[3] = in vivo; cited from earlier work
myocardium [4] = assay: Closed chest ultrasound imaging of the heart with contrast agent, then adenosine bolus; type: in vivo, dog; conditions: Preparation 1 contrast agent
Source text: The procedure of Example 1 was repeated with a closed chest dog, using a parasternal transducer position. The resulting ultrasound images were less homogeneous as regards signal intensities than the images obtained in Example 1, as a result of acoustic effects of the intact chest wall.
as §1, §2
6-10 baseline images from before the appearance of adenosine effects were averaged to give a representative baseline image, and a similar number of images at peak adenosine effect were likewise averaged. […]

myocardium [5] = assay: Open chest ultrasound imaging of the heart with contrast agent, then adenosine bolus; type: in vivo, dog
Method: A midline sternotomy was performed on an anaesthetised 20 kg mongrel dog and the anterior pericardium was removed. A short axis view of the heart was imaged with an ATL HDI-3000 scanner, using a P5-3 transducer in harmonic mode; a 30 mm silicone rubber spacer having low ultrasound attenuation was placed between the transducer and the anterior surface of the heart. ECG gating was used so as to acquire one image in each end-systole.
as §1, §2, §3
Images were acquired as described in Example 1 and processed according to the method of Example 4. The normal myocardium was depicted with a homogeneous colour indicating a signal increase of some 3-4 dB.

myocardium [6] = assay: Imaging in man: pulse inversion imaging of the heart with contrast agent and adenosine infusion; type: in vivo, human; conditions: adenosine i.v. infusion 140 μg/kg/min, apical 2-chamber view, Preparation 1 contrast agent
Method: A patient with an angiographically verified 80% left anterior descending arterial stenosis was given an intravenous injection of 1 ml of a perfluorobutane microbubble suspension prepared as in Preparation 1. The heart was imaged with an ATL HDI-5000 scanner and a P4-2 transducer, using ECG-gated (every second end-systole) pulse inversion imaging; the mechanical index was 0.6. The heart was imaged from an apical 2-chamber view. […] Intravenous infusion of adenosine at a rate of 140 μg/kg/min was then started, and a sequence of 30 images, of which 10 were before the onset of adenosine effects in the heart, were stored in digital format. The images were processed as in Example 4, but without the initial video grabbing steps.

[7] = adenosine 150 μg/kg i.v. bolus after Preparation 1 contrast agent
[8] = blood flow reduced to about 75% of normal, adenosine 150 μg/kg i.v. bolus, Preparation 1 contrast agent
[9] = following injection of adenosine, processed difference image

With `CC(CCc1ccc(O)cc1)NCCc1ccc(O)c(O)c1` (centres unmarked) [dobutamine] the “change in contrast effect in the myocardium, except in areas supplied by the stenotic artery” value (myocardium [1]; dobutamine infusion 15 μg/kg/min, Preparation 1 contrast agent) was “increase in contrast effect”.

In the case of `Oc1ccc(CCCCNC[C@H](O)c2ccc(O)c(O)c2)cc1` [arbutamine], the “change in contrast effect in the myocardium, except in areas supplied by the stenotic artery” value (myocardium [1]; arbutamine infusion 0.4 μg/kg/min, Preparation 1 contrast agent) was “increase in contrast effect”.

In the case of `Nc1ncnc2c1ncn2[C@@H]1O[C@H](CO)[C@@H](O)[C@H]1O` [Adenosine, adenosine], the “ratio of peak myocardial videointensities, adenosine stress compared to resting” value ([2]; stenoses with diameter in excess of 70%) is given as 0.8-1.4, the “ratio of peak myocardial videointensities, adenosine stress compared to resting” value ([2]; stenoses with diameter not exceeding 50%) is given as 1.8-2.1 and the blood pool half-life [3] is given as “only a few seconds”. The “change in echo intensities after injection of adenosine” value (myocardium [4]; parasternal transducer position) was “general increase in echo intensities comparable to that observed in Example 1”, the “signal increase in normal myocardium (processed difference image)” value (myocardium [4]; peak adenosine effect versus baseline) was 3-4 dB and the “change in echo intensity from the myocardium” value (myocardium [5]; [7]) was “distinct general increase in echo intensity”. The “duration of the increase in echo intensity” value (myocardium [5]; [7]) was roughly 15 s, the “time from adenosine injection to increase in echo intensity from the myocardium” value (myocardium [5]; [7]) was 7 s and the “signal increase in normal myocardium (processed difference image)” value (myocardium [5]; open chest, peak adenosine effect versus baseline, Preparation 1 contrast agent) was 3-4 dB. For the same molecule, the “change in contrast effect in all other areas of the myocardium” value (myocardium [1]; [8]) was “increase”, the “change in contrast effect in tissue areas affected by the occlusion” value (myocardium [1]; [8]) was “slight decrease in contrast effect” and the “decrease in signal intensity in myocardial tissue affected by the simulated coronary stenosis” value (myocardium [1]; [9]) was 1-3 dB. For the same molecule, the “increase in signal intensity in normal myocardium” value (myocardium [1]; [9]) was 2-3 dB, the “decrease in signal intensity in myocardial regions supplied by the stenotic artery” value (myocardium [6]) was 1-2 dB and the “increase in signal intensity in normal regions of the myocardium” value (myocardium [6]) was 2-3 dB.
